In brackets after ≈: the same amount, converted by molar mass.
How the values were obtained:
[1] = Cytotoxicity evaluation using viability assay (crystal violet colorimetric method); type: cell-based; details: human, HepG2 cells; for viability at 48 h, 0.78 μg: HepG2, sample conc. 0.78 μg
[2] = tested on: HepG2 (Hepatocellular carcinoma cells); test: as above; type: cell-based, human; details: Homo sapiens, 48 hours incubation, read-out: inhibition concentration value (IC50)
From the text: (§1) HepG2 cells (human cell line of a well differentiated hepatocellular carcinoma isolated from a liver biopsy of a person) were obtained from the American Type Culture Collection (ATCC). The chemicals used were: Dimethyl sulfoxide (DMSO), crystal violet and trypan blue dye, purchased from Sigma, St. Louis, Mo., USA; DMEM, RPMI-1640, FBS, HEPES buffer solution, L-glutamine, gentamycin and 0.25% Trypsin-EDTA, purchased from BioWhittaker®, Lonza, Belgium; and Crystal violet stain (1%), composed of 0.5% (w/v) crystal violet and 50% methanol, made up to volume with ddH20 and filtered through a Whatmann No. I filter paper.
(§2) In the cytotoxicity assay, the cells were propagated in Dulbecco's modified Eagle's medium (DMEM) supplemented with 10% heat-inactivated fetal bovine serum, 1% L-glutamine, HEPES buffer and 50 μg/ml gentamycin. All cells were maintained at 37° C. in a humidified atmosphere with 5% CO2 and were subcultured two times a week.
(§3) Cell toxicity was monitored by determining the effect of the test samples on cell morphology and cell viability.
(§4) For cytotoxicity assay, the cells were seeded in a 96-well plate at a cell concentration of 1×10^4 cells per well in 100 μl of growth medium. Fresh medium containing different concentrations of the test sample was added after 24 hours following seeding. Serial two-fold dilutions of the tested chemical compound were added to confluent cell monolayers dispensed into 96-well, flat-bottomed microtiter plates (Falcon, N.J., USA) using a multichannel pipette. The microtiter plates were incubated at 37° C. in a humidified incubator with 5% CO2 for a period of 48 hours. Three wells were used for each concentration of the test sample. Control cells were incubated without test sample and with or without DMSO. The little percentage of DMSO present in the wells (maximal 0.1%) was found not to affect the experiment. After incubation of the cells for 24 hours at 37° C., various concentrations of sample (50, 25, 12.5, 6.25, 3.125 & 1.56 μg) were added, and the incubation was continued for 48 hours and viable cells yield was determined by a colorimetric method.
(§5) In brief, after the end of the incubation period, media were aspirated and the crystal violet solution (1%) was added to each well for at least 30 minutes. The stain was removed and the plates were rinsed using tap water until all excess stain was removed. Glacial acetic acid (30%) was then added to all wells and mixed thoroughly and then the absorbance of the plates was measured after being gently shaken on a Microplate reader (TECAN, Inc.), using a test wavelength of 490 nm. All results were corrected for background absorbance detected in wells without added stain. Treated samples were compared with the cell control in the absence of the tested compound. All experiments were carried out in triplicate.
(§6) The cell cytotoxic effect of tested compound was calculated according to the rapid colorimetric assay for cellular growth and survival: application to proliferation and cytotoxicity assay, published by T. Mosmann in the Journal of Immunology Methods, 1983, 65:55-63; and the antiviral activity of medicinal plants of Nilgriris, published by P. Vijayan et al. in the Indian Journal of Medical Research, 2004, 120: 24-29.

[3] = as above; type: cell-based, human; details: human, HepG2 cells, 48 hours; for viability at 48 h, 1.56 μg: HepG2, sample conc. 1.56 μg; for viability at 48 h, 3.125 μg: HepG2, sample conc. 3.125 μg; for viability at 48 h, 6.25 μg: HepG2, sample conc. 6.25 μg; for viability at 48 h, 12.5 μg: HepG2, sample conc. 12.5 μg; for viability at 48 h, 25 μg: HepG2, sample conc. 25 μg; for viability at 48 h, 50 μg: HepG2, sample conc. 50 μg
From the text: as §1, §2, §3, §4, §5, §6

Row | Compound | melting point [°C] | viability at 48 h, 0.39 μg ([1]; HepG2, sample conc. 0.39 μg) [%] | viability at 48 h, 0.78 μg [1] [%] | IC50 [2] [µg/mL] | viability at 48 h, 1.56 μg [3] [%] | viability at 48 h, 3.125 μg [3] [%] | viability at 48 h, 6.25 μg [3] [%] | viability at 48 h, 12.5 μg [3] [%] | viability at 48 h, 25 μg [3] [%] | viability at 48 h, 50 μg [3] [%]
1 | O=c1[nH]c(Nc2ccc([N+](=O)[O-])cc2)nc2sc3c(c12)CCCCC3 (hydrate or solvate) [Compound III, 2-((4-Nitrophenyl)amino)-6,7,8,9-tetrahydro-3H-cyclohepta[4,5]thieno[2,3-d]pyrimidin-4(5H)-one] | 298 |  |  |  |  |  |  |  |  | 
2 | O=c1[nH]c(Nc2ccc([N+](=O)[O-])cc2)nc2sc3c(c12)CCCCC3 [Compound III, 2-((4-Nitrophenyl)amino)-6,7,8,9-tetrahydro-3H-cyclohepta[4,5]thieno[2,3-d]pyrimidin-4(5H)-one] |  | 60.8 | 47.1 | 0.7 (≈ 1.96 µM) | 36.9 | 23.7 | 18.5 | 14.4 | 10.2 | 6.32
3 | COc1cccc2c1C(=O)c1c(O)c3c(c(O)c1C2=O)C[C@@](O)(C(=O)CO)C[C@@H]3O[C@H]1C[C@H](N)[C@H](O)[C@H](C)O1 [Doxorubicin, reference compound] |  |  | 57.4 |  | 48.2 | 30.3 | 21 | 16.9 | 14.3 | 10.9
